Results: the NIST ThermoML archive (doi:10.1021/je0301794)

Key:
[1] = excess molar enthalpy (molar enthalpy of mixing); xn = mol fraction of the nth substance listed; conditions: 318.15 K, 101.3 kPa, Liquid
[2] = xn = mol fraction of the nth substance listed; conditions: 101.3 kPa, Liquid

COC(=O)OC [dimethyl carbonate] + CCCCCCC
[1]
Conditions | excess molar enthalpy [kcal/mol]
x1 = 0.095 | 0.191
x1 = 0.1875 | 0.317
x1 = 0.2819 | 0.413
x1 = 0.3677 | 0.474
x1 = 0.4442 | 0.503
x1 = 0.5016 | 0.512
x1 = 0.5205 | 0.512
x1 = 0.5497 | 0.511
x1 = 0.5542 | 0.51
x1 = 0.5906 | 0.505
x1 = 0.6326 | 0.493
x1 = 0.674 | 0.474
x1 = 0.7188 | 0.443
x1 = 0.7582 | 0.405
x1 = 0.8053 | 0.357
x1 = 0.8488 | 0.299
x1 = 0.892 | 0.23
x1 = 0.929 | 0.157
x1 = 0.9663 | 0.0784
x1 = 1 | 0

[2]
Conditions | mass density [kg/m3]
293.15 K, x1 = 0.05 | 694
293.15 K, x1 = 0.094 | 703.5
293.15 K, x1 = 0.2039 | 729.2
293.15 K, x1 = 0.324 | 761.2
293.15 K, x1 = 0.4062 | 785.9
293.15 K, x1 = 0.5059 | 819.4
293.15 K, x1 = 0.6099 | 859.2
293.15 K, x1 = 0.6987 | 897.8
293.15 K, x1 = 0.8086 | 952.7
293.15 K, x1 = 0.9029 | 1006.6
293.15 K, x1 = 0.9504 | 1036.6
293.15 K, x1 = 1 | 1070
298.15 K, x1 = 0.0594 | 691.6
298.15 K, x1 = 0.1204 | 704.9
298.15 K, x1 = 0.2132 | 726.7
298.15 K, x1 = 0.3135 | 753.1
298.15 K, x1 = 0.4018 | 779
298.15 K, x1 = 0.4716 | 801.6
298.15 K, x1 = 0.6051 | 851
298.15 K, x1 = 0.6946 | 889.3
298.15 K, x1 = 0.8031 | 943
298.15 K, x1 = 0.902 | 999.5
298.15 K, x1 = 0.9477 | 1028.2
298.15 K, x1 = 1 | 1063.5
303.15 K, x1 = 0.0586 | 687.2
303.15 K, x1 = 0.0873 | 693.2
303.15 K, x1 = 0.1996 | 718.7
303.15 K, x1 = 0.299 | 744.2
303.15 K, x1 = 0.4009 | 773.6
303.15 K, x1 = 0.5081 | 808.9
303.15 K, x1 = 0.6069 | 846.2
303.15 K, x1 = 0.6979 | 885.2
303.15 K, x1 = 0.8051 | 938
303.15 K, x1 = 0.9069 | 995.8
303.15 K, x1 = 0.9638 | 1031.6
303.15 K, x1 = 1 | 1056.5
313.15 K, x1 = 0.0649 | 679.3
313.15 K, x1 = 0.1157 | 690.1
313.15 K, x1 = 0.3432 | 746.6
313.15 K, x1 = 0.4378 | 775.1
313.15 K, x1 = 0.5458 | 812
313.15 K, x1 = 0.6259 | 842.9
313.15 K, x1 = 0.7191 | 883.2
313.15 K, x1 = 0.8128 | 929.3
313.15 K, x1 = 0.8798 | 966.5
313.15 K, x1 = 0.9536 | 1012
313.15 K, x1 = 0.9822 | 1031.1
313.15 K, x1 = 1 | 1043.4
318.15 K, x1 = 0.0693 | 675.1
318.15 K, x1 = 0.1044 | 682.5
318.15 K, x1 = 0.1947 | 702.6
318.15 K, x1 = 0.2734 | 722
318.15 K, x1 = 0.3512 | 743.2
318.15 K, x1 = 0.419 | 763.3
318.15 K, x1 = 0.4889 | 785.9
318.15 K, x1 = 0.5518 | 808.1
318.15 K, x1 = 0.61 | 830.3
318.15 K, x1 = 0.6632 | 852
318.15 K, x1 = 0.7142 | 874.6
318.15 K, x1 = 0.762 | 897.1
318.15 K, x1 = 0.8077 | 920.1
318.15 K, x1 = 0.8514 | 943.8
318.15 K, x1 = 0.8883 | 965
318.15 K, x1 = 0.9289 | 989.7
318.15 K, x1 = 0.964 | 1012.4
318.15 K, x1 = 1 | 1036.9
